The text below walks through data of patent US4778799A, “Synergistic combination of flupirtin and non-steroidal antiphlogistic” (priority 1985, dated 1988).

The nature of series [1]: Randall-Selitto Test, inflammation pain, per os. In kind it is in vivo, albino rat (Sprague-Dawley). As to conditions: alone. The method, then:
Randall-Selitto-Test According to Randall, Selitto, Arch. int.
Animal: Albino-Rat (Sprague-Dawley); Application: per os
Sucker, Fuchs, Speiser, Pharmazeutische Technologie, Thieme-Verlag, Stuttgart, 1978. Short Description of the Pharmacological Test Methods Mentioned in the Application Randall-Selitto-Test (Inflammation Pain on the Rat)
In accordance with the method of Randall and Selitto (L. O. Randall, J. J. Selitto, Arch. int. Pharmacodyn., Volume 111, pages 409-418, 1957) rats were injected subplantarly with […] of a 20% (in dimineralized water) brewer's yeast suspension in the right hind paw. 21/2 hours later the test materials were dispensed and 30 minutes later the swelling pain measured with an Algesiemeter as pressure (in grams) on the inflamed paw (apparatus of Ugo Basile, Milan, Italy). As criteria there are considered the defensive reaction of the animals drawing the paw away and/or freeing themselves from the grip of the experimenters. The effect of the material was determined from the increase of the swelling pain compared to the untreated control group. The experimental procedure different from the original method in that the materials were applied 21/2 hours after the setting of edema and not simultaneously therewith. In this way there should be prevented the development of edema, being checked by a possible antiphlogistic action and the analgesy superimposed or simulated.
The ED50 was determined by means of the method of linear regression.

Series [2] is described as follows: Bradykinin-Edema Test, antiphlogistic activity, per os. In kind it is in vivo, albino rat (Sprague-Dawley). As to conditions: alone. The method, then: Bradykinin-Edema-Test Relying On and Modification of the Method of
Morsdorf et al (Arch. int. Pharmacodyn. 192,111-127 (1971). Animal:
Albino-rat (Sprague-Dawley):
Relying on the modification of the method of Morsdorf et al (Arch. int. Pharmacodyn. Volume 192, pages 111-127 (1971)) male rats received subplantarly in the right hind paw an injection of a 1% carrageenin solution (Carrageenin, Type IV, Sigma C-3889). One hour and four hours later there was determined the volume of the paw. To measure the volume there was used a volume meter (Rhema-Labortechnik Company, D-6238 Hofheim, Type 2060). Directly after the first measurement the test substance was dispensed by means of a gullet stomach catheter. There was calculated the increase in the swelling of the paw in the second measurement compared to the first measurement in absolute values (ml). The evaluation included the determination of the percent average value of the difference of the edema volumes one and four hours after receiving the inflammatory solution. The edema inhibiting action was calculated in percent from the edema volume measured by water displacement in comparison to the edema volume of the untreated inflammed control group.
As the single change in comparison to the Carrageenin-Edema Test in place of Carrageenin there was injected subplantarly Bradykinin (Sigma B 3259) 0.01 mg/animal in 0.1 ml of a 0.9% sodium chloride solution.

A short description of series [3]: Acetic Acid-Writhing Test according to Koster et al., analgetic activity, per os. It is filed as in vivo, white mouse (NMRI-Mouse). Set-up: ED50: unit: mg/kg. To be noted: for ED50: substance alone, per os, 30 minutes after giving, linear regression. The method, then:
These investigations were carried out in the Acetic Acid Test (Writhing Test) on the white mouse.
Writhing According to Koster et al; Fed.
(§1) Animal: White Mouse (NMRI-Mouse); Application: per os
Writhing Test According to Koster et al.: Fed.
as §1
The pain reaction is expressed as a characteristic stretching of the animals ("writhing syndrome") which persists in irregular time intervals for a long period of time after the injection of the acetic acid. The dosage dependent suppression of the frequency of the stretching motion compared to an untreated control group is expressed in percent as analgetic effect. The evaluation is carried out by determination of the ED50 (Method of Linear Regression).
The acetic acid test is marked by the fact that not only is there detectable the effect of strong, central acting analgetics but also preponderantly peripherally acting analgetics-antipyretics and antiphlogistically active pharmaceuticals such as phenyl butazone, Indometacin and others. Therewith the effect in this procedure refers to a peripheral component of the analgesic.

Series [4] can be described thus: Ulcerogenic effect (stomach mucosa erosion) 24 hours after single oral dispensation. In kind it is in vivo, albino rat (Sprague-Dawley). To be noted: 24 mg/kg Diclofenac alone per os. The method, then:
Testing of Ulcerogenic Effect Relying On the Method of Jahn and Adrian (Arzneimittelforschung, Volume 19 (1969) pages 36-52)
The experimental animals are male albino rats which are maintained under the usual conditions at 21°-22° C. After 48 hours of qualified feeding the test materials were dispensed perorally an increasing dosages. The animals were killed 24 hours later and the stomachs investigated for ulcerogenic changes according to the method of Munchow, Arzneimittelforschung, Volume 4 (1954), pages 341-344. (The size of the ulcers formed is measured are classified according to Munchow.)

Setting [5] is: Mus musculus, po, read-out: Activity in %.

One may read the ED50 as the midpoint of the dose-response relation.

As to `O=C(O)Cc1ccccc1Nc1c(Cl)cccc1Cl` [Diclofenac], the ED50 is 2.95 mg/kg in series [1] (Rattus norvegicus, po, 0.5 h, per os, 30 minutes after giving, linear regression, read-out: ED50); “No ED50” in series [2] (per os, printed in words: no ED50 defineable); 12 mg/kg in series [3] (Mus musculus, po, 0.5 h); 12.1 mg/kg in series [3] (30 min). In addition, the Activity in % in series [1] (1.0 mg/kg per os) is on record as 20.99%; in series [1] (3.0 mg/kg per os) it was 32.60%; in series [1] (10.0 mg/kg per os), 100.55%; in series [1] (30.0 mg/kg per os), 135.36%. The “Activity in % (- = inhibiting)” value in series [2] (1.0 mg/kg per os) was “+2.9%”; in series [2] (3.0 mg/kg per os), “+8.6%”; in series [2] (9.0 mg/kg per os), -31.4%; in series [2] (27.0 mg/kg per os), -45.7%. Besides, in series [3] (setting [5]), the inhibition in vivo at 3.9 mg/kg is 33.3%. Moreover, the inhibition in vivo at 7.8 mg/kg in series [3] (setting [5]) was determined as 50%. Also, the inhibition in vivo at 15.6 mg/kg in series [3] (setting [5]) was 45.8%. The inhibition in vivo at 31.25 mg/kg in series [3] (setting [5]) amounted to 66%. In series [3] (setting [5]), the inhibition in vivo at 62.5 mg/kg stood at 67.4%. Also, the inhibition in vivo at 125 mg/kg in series [3] (setting [5]) was determined as 91.7%. Further, the minimal effective dose in series [3] (Mus musculus, po, read-out: lowest analgetically effective dosage) is 3.9 mg/kg. Also, the “ulcerogenic effect (stomach mucosa erosion)” value in series [4] is listed as “erosion of the stomach mucosa”.
